Test results taken from patent publication US10954228B2 (NATIONAL INSTITUTES OF HEALTH, UNITED STATES DEPARTMENT OF …, priority 2016, dated 2021).

What was measured:
Human LDHA = Human LDHA (Homo sapiens (Human), UniProt P00338); assay: human LDHA primary biochemical assay; settings: biochemical LDHA inhibitory activity, assay of Example 1; activity level classes defined in nM
Procedure, shortened: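 Human LDHA at 2 nM with 0.06 mM NADH and 0.2 mM sodium pyruvate in 200 mM Tris HCl pH 7.4, 100 μM EDTA, 0.01% TWEEN-20 (final). NADH consumption coupled to resazurin/diaphorase (0.037 mM; 0.133 mg/mL); inhibition read by fluorescence.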

MiaPaCa2 cells = assay: cell-based HT lactate assay by colorimetric/fluorometric detection (cellular inhibition of lactate production); settings: Homo sapiens, MIA PaCa-2, assay of Example 6
Procedure, shortened: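 Miniaturised colorimetric/fluorometric lactate kit assay, about 3.5 h total, measuring cellular lactate production. MiaPaCa2 seeded at 500 cells/well, a density chosen so lactate falls near 90% of the standard curve range.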

CN(C)c1ccc(-c2cccc(-c3nn(-c4nc(C(=O)O)cs4)c(CC4CC4)c3Cc3ccc(S(N)(=O)=O)c(F)c3)c2)cc1 [Compound 178, 2-(5-(cyclopropylmethyl)-3-(4′-(dimethylamino)-[1,1′-biphenyl]-3-yl)-4-(3-fluoro-4-sulfamoylbenzyl)-1H-pyrazol-1-yl)thiazole-4-carboxylic acid]
IC50 (Human LDHA): < 100 nM
IC50 (MiaPaCa2 cells): > 57 µM

Cc1ccc(C#Cc2cccc(-c3nn(-c4nc(C(=O)NC#N)cs4)c(CC4CC4)c3Cc3ccc(S(N)(=O)=O)c(F)c3)c2)s1 [Compound 179, N-cyano-2-(5-(cyclopropylmethyl)-4-(3-fluoro-4-sulfamoylbenzyl)-3-(3-((5-methylthiophen-2-yl)ethynyl)phenyl)-1H-pyrazol-1-yl)thiazole-4-carboxamide]
IC50 (Human LDHA): 1000 to 57000 nM
IC50 (MiaPaCa2 cells): > 57 µM
